Test results reported in US20080193563A1, “HARNESSING WNT SIGNALING TO RESTRICT HIV REPLICATION” (priority 2006, published 2008).

What was measured:
Format in all cases: cell-based, human
[1] = system: TCF-4 / Wnt signaling; assay: TOPflash luciferase reporter (Wnt signaling) in U87MG; conditions: IFNγ treated, 24 hrs post-transfection
Protocol: FIG. 11 Impact of IFN-γ on Wnt signaling. U87MG cells were left untreated or treated with IFN-γ for 24 hrs and then transfected with either TOPflash (containing four native TCF/LEF binding sites) and Renilla constructs or GFP and Renilla constructs. Transfected cells were then cultured with or without their initial treatment (with or without IFN-γ). Luciferase relative light activity (relative light units) was measured 24 hrs later using a luminometer and normalized to Renilla activity. Data are based on at least three experiments and are presented as the increase (n-fold) in luciferase relative light units over Renilla ±standard deviation.
Wnt signaling in astrocytes and its inhibition by IFNγ was investigated: Although inhibiting TCF-4 with a dominant negative mutant stresses the importance of active TCF-4 in restricting HIV replication, it is not informative regarding the mechanism by which IFNγ overcomes astrocyte restriction to productive HIV replication. […] Luc activity was measured 24 hrs post-transfection TCF-4 reporter construct is an indicator of basal and inducible levels of Wnt signaling.
Active Wnt signaling in astrocytes and its inhibition by IFN-γ. […] Basal TCF-4 activity was detected in astrocytes, indicating active Wnt signaling in human astrocytes (FIG. 11). […]

[2] = system: IFNγ receptor on HFA; assay: Cytokine receptor expression on HFA by flow cytometry; conditions: untreated 6%
Protocol: U87MG (A) or HFA (B) were left untreated or treated with GM-CSF (50 ng/ml), IFNγ100 ng/ml) or TNFγ100 ng/ml). […] Percent expression of GM-CSF receptor (R), IFNγR, and TNFγR was measured 24 hours post-stimulation by flow cytometry. Data is representative of three experiments. Error bars represent standard deviations of the mean.
Prior to evaluating if GM-CSF, IFNγ, and TNFγ can augment HIV replication of astrocytes, a question was whether U87MG and HFA express the respective cytokine receptors. U87MG and HFA were treated with or without the respective cytokine for 24 hours and cytokine receptor expression was evaluated by flow cytometry. Approximately 35% of U87MG expressed the IFNγ receptor and a low level of GM-CSF and TNFγ receptors (<8%; FIG. 3A). […] Untreated HFA expressed only low levels of IFNγ receptor (6%) and this expression was abrogated with IFNγ treatment. GM-CSF and TNFγ receptors were not expressed on HFA.

[3] = system: CD4, hMR, CXCR4 on HFA; assay: HIV receptor and chemokine co-receptor expression on HFA by flow cytometry
Protocol: U87MG (A) and HFA (B) were left untreated or treated GM-CSF (50 ng/ml) or IFNγ (100 ng/ml) for 24 h. Expression of receptors on the x-axis was measured by flow cytometry. Isotype refers to mouse IgG. Data is representative of three experiments. Error bars represent standard deviation of the mean. (C). IFNγ up-regulates D6 on U87MG cells. U87MG were left untreated or treated with IFNγ. After 3 days, the cells were immunostained with anti-D6 or isotype antibodies. The first histogram (peak) represents isotype control; the dark shaded histogram represents untreated cultures, and the third histogram (peak) represents IFNγ-treated cultures. Data is typical of quadruplet experiments.
Because IFNγ was a potent cytokine in inducing HIV infection of astrocytes, it was determined whether IFNγ treatment modulated key HIV receptors CD4, human mannose receptor D6 and co-receptors (CCR1, CCR2, CCR3, CXCR4, and CCR5) for HIV infection. U87MG is human mannose receptor (hMR) […] (FIG. 5). However, hMR was not detected on HFA, which may be regulated by the differentiation stage of the HFA (FIG. 5 (B)). CD4 and hMR expression in both U87MG and HFA was not augmented by IFNγ or GM-CSF (FIG. 5(A)-(B)). […] HFA were positive for CXCR4 (12%), but its expression was not augmented by GM-CSF or IFNγ treatment (FIG. 5B). IFNγ was reported to enhance CXCR4 and CCR5 expression on simian adult astrocytes, which is in contrast to data on human fetal astrocytes highlighting a discrepancy between simian adult and human fetal astrocytes. […] Infection of U87MG and HFA with a T-tropic isolate (IIIB), while it was productive, was not enhanced by cytokine pre-treatment. This may be a consequence of the laboratory adapted HIV IIIB, therefore primary T-tropic or dual tropic strains may still be responsive to IFNγ pre-treatment of astrocytes. Recently, the CC chemokine receptor D6 was identified as a functional co-receptor for primary HIV infection of astrocytes.

IFNγ: cytokine secreted by lymphocytes, activated microglia and astrocytes; used to prime astrocytes
Reduction of basal Wnt signaling (TOPflash luciferase) [1]: approximately 50%
IFNγ receptor expression after treatment [2]: abrogated
CD4 and hMR expression [3]: not augmented
CXCR4 expression ([3]; untreated 12%): not augmented
